# Results reported in paper PMC2248166, “Quantitative peptide binding motifs for 19 human and mouse MHC class I molecules derived using positional scanning combinatorial peptide libraries” (Immunome Research, 2008).
# Where a SMILES comes first, the peptide text is derived from it.
# Biological target: HLA B*1503 (Homo sapiens, UniProt P01889, A329T/A93T/A95T/C349S/D201E/D98Y/E187L/E204Q/K202T/N87E/Q94N/R155S/R180L/S121R/S35A/V306I/V36M/Y140S/Y91S)
# Experiment: biochemical
# Assay type: binding
row,Structure (SMILES),IC50
1,CC[C@H](C)[C@H](N)C(=O)N[C@@H](CCC(N)=O)C(=O)N[C@@H](Cc1ccccc1)C(=O)N[C@@H](CCSC)C(=O)N[C@@H](Cc1c[nH]cn1)C(=O)N[C@@H](CCC(=O)O)C(=O)N[C@@H](CCC(N)=O)C(=O)NCC(=O)N[C@@H](Cc1ccc(O)cc1)C(=O)O [3102.1159] (H-IQFMHEQGY-OH),3.7 nM
2,CSCC[C@H](NC(=O)[C@@H](N)[C@@H](C)O)C(=O)N[C@H](C(=O)N[C@@H](CC(N)=O)C(=O)N[C@@H](CO)C(=O)N[C@@H](CC(C)C)C(=O)N[C@H](C(=O)N[C@@H](Cc1ccc(O)cc1)C(=O)N[C@@H](Cc1ccccc1)C(=O)O)[C@@H](C)O)C(C)C [3102.1160] (H-TMVNSLTYF-OH),0.13 nM
3,CC(C)C[C@H](NC(=O)[C@@H](N)CCCCN)C(=O)N[C@H](C(=O)N[C@@H](CO)C(=O)N[C@H](C(=O)N[C@@H](CCC(=O)O)C(=O)N[C@H](C(=O)N[C@@H](CO)C(=O)N[C@@H](Cc1ccccc1)C(=O)O)[C@@H](C)O)[C@@H](C)O)[C@@H](C)O [3102.1165] (H-KLTSTETSF-OH),25 nM
4,CC[C@H](C)[C@H](NC(=O)[C@@H](NC(=O)[C@H](C)NC(=O)[C@H](CS)NC(=O)[C@H](CCCNC(=N)N)NC(=O)[C@@H](NC(=O)[C@@H](N)Cc1ccccc1)[C@@H](C)O)C(C)C)C(=O)N1CCC[C@H]1C(=O)N[C@@H](Cc1ccccc1)C(=O)O [3102.1166] (H-FTRCAVIPF-OH),5.4 nM
5,CC(C)C[C@H](NC(=O)[C@H](Cc1c[nH]c2ccccc12)NC(=O)[C@H](CCCCN)NC(=O)[C@H](C)NC(=O)[C@H](CCCCN)NC(=O)[C@@H](N)Cc1ccccc1)C(=O)N[C@H](C(=O)N1CCC[C@H]1C(=O)N[C@@H](Cc1ccccc1)C(=O)O)[C@@H](C)O [3102.1174] (H-FKAKWLTPF-OH),0.073 nM
6,NCCCC[C@H](NC(=O)[C@H](CC(=O)O)NC(=O)[C@H](CC(N)=O)NC(=O)[C@H](CC(N)=O)NC(=O)[C@H](Cc1ccc(O)cc1)NC(=O)[C@H](CCCCN)NC(=O)[C@@H](N)CCCCN)C(=O)N[C@@H](CO)C(=O)N[C@@H](Cc1ccccc1)C(=O)O [3102.1179] (H-KKYNNDKSF-OH),0.078 nM
7,CC[C@H](C)[C@H](N)C(=O)N[C@@H](CCC(N)=O)C(=O)N[C@@H](Cc1c[nH]cn1)C(=O)N[C@@H](CC(N)=O)C(=O)N[C@@H](Cc1ccccc1)C(=O)N[C@H](C(=O)N[C@@H](CCC(N)=O)C(=O)N[C@H](C(=O)N[C@@H](C)C(=O)O)[C@@H](C)CC)[C@@H](C)O [3102.1181] (H-IQHNFTQIA-OH),0.25 nM
8,CSCC[C@H](NC(=O)[C@H](C)NC(=O)[C@H](CCCCN)NC(=O)[C@@H](N)Cc1ccccc1)C(=O)N[C@@H](Cc1c[nH]c2ccccc12)C(=O)N[C@@H](CCCCN)C(=O)N[C@@H](Cc1ccc(O)cc1)C(=O)N1CCC[C@H]1C(=O)N[C@@H](Cc1ccccc1)C(=O)O [3102.1182] (H-FKAMWKYPF-OH),0.11 nM
9,CSCC[C@H](NC(=O)[C@@H](N)CCSC)C(=O)N[C@H](C(=O)N[C@@H](CO)C(=O)N[C@H](C(=O)N[C@@H](CCC(=O)O)C(=O)N[C@@H](CC(N)=O)C(=O)N[C@@H](CC(N)=O)C(=O)N[C@@H](CC(C)C)C(=O)O)[C@@H](C)O)C(C)C [3102.1183] (H-MMVSTENNL-OH),11 nM
10,CSCC[C@H](NC(=O)[C@H](CO)NC(=O)[C@H](Cc1ccccc1)NC(=O)[C@H](CC(N)=O)NC(=O)[C@@H](NC(=O)[C@H](CCSC)NC(=O)[C@@H](N)Cc1ccccc1)[C@@H](C)O)C(=O)N[C@H](C(=O)N[C@@H](Cc1ccc(O)cc1)C(=O)O)C(C)C [3102.1186] (H-FMTNFSMVY-OH),2.3 nM
11,CC[C@H](C)[C@H](NC(=O)[C@H](Cc1c[nH]cn1)NC(=O)[C@@H](NC(=O)[C@H](Cc1ccc(O)cc1)NC(=O)[C@H](CCC(N)=O)NC(=O)[C@@H](N)CC(C)C)C(C)C)C(=O)N[C@@H](CC(N)=O)C(=O)N[C@@H](CCC(=O)O)C(=O)N[C@@H](CC(C)C)C(=O)O [3102.1187] (H-LQYVHINEL-OH),3.7 nM
12,CSCC[C@H](NC(=O)[C@@H](N)CCCCN)C(=O)N[C@H](C(=O)N[C@@H](CCCNC(=N)N)C(=O)N[C@H](C(=O)N[C@@H](Cc1ccccc1)C(=O)N[C@@H](CC(N)=O)C(=O)N[C@@H](CCCCN)C(=O)N[C@@H](Cc1ccccc1)C(=O)O)C(C)C)[C@@H](C)O [3102.1188] (H-KMTRVFNKF-OH),0.43 nM
13,CC(C)C[C@H](NC(=O)[C@H](CC(C)C)NC(=O)[C@@H](NC(=O)[C@H](CO)NC(=O)[C@H](CO)NC(=O)[C@H](CCCCN)NC(=O)[C@@H](N)CCCCN)[C@@H](C)O)C(=O)N[C@H](C(=O)N[C@@H](Cc1ccccc1)C(=O)O)[C@@H](C)O [3102.1189] (H-KKSSTLLTF-OH),0.36 nM
14,CC(C)[C@H](NC(=O)[C@@H](NC(=O)[C@H](CC(=O)O)NC(=O)[C@H](CO)NC(=O)[C@H](CCC(N)=O)NC(=O)[C@H](CO)NC(=O)[C@H](CCCCN)NC(=O)[C@H](C)N)[C@@H](C)O)C(=O)N[C@@H](Cc1ccccc1)C(=O)O [3102.1191] (H-AKSQSDTVF-OH),0.16 nM
15,CC[C@H](C)[C@H](NC(=O)[C@H](Cc1ccc(O)cc1)NC(=O)[C@H](CO)NC(=O)[C@@H]1CCCN1C(=O)[C@H](Cc1ccc(O)cc1)NC(=O)[C@H](CCSC)NC(=O)[C@@H](N)CO)C(=O)N[C@@H](CCC(=O)O)C(=O)N[C@@H](Cc1ccccc1)C(=O)O [3102.1196] (H-SMYPSYIEF-OH),0.11 nM
16,CC[C@H](C)[C@H](N)C(=O)N[C@@H](CCCCN)C(=O)N[C@@H](Cc1ccccc1)C(=O)N[C@@H](C)C(=O)N[C@@H](C)C(=O)NCC(=O)N[C@H](C(=O)N[C@H](C(=O)N[C@H](C(=O)O)[C@@H](C)CC)[C@@H](C)CC)[C@@H](C)CC [3102.1198] (H-IKFAAGIII-OH),16 nM
17,CC[C@H](C)[C@H](NC(=O)[C@@H](NC(=O)[C@H](Cc1ccccc1)NC(=O)[C@H](CCSC)NC(=O)[C@@H](NC(=O)[C@H](CCCCN)NC(=O)[C@@H](N)[C@@H](C)O)C(C)C)C(C)C)C(=O)N[C@@H](CCCNC(=N)N)C(=O)N[C@@H](Cc1ccccc1)C(=O)O [3102.1199] (H-TKVMFVIRF-OH),31 nM
18,CC[C@H](C)[C@H](NC(=O)[C@H](CCCCN)NC(=O)[C@@H](N)CCSC)C(=O)N[C@H](C(=O)N[C@@H](CCCNC(=N)N)C(=O)N1CCC[C@H]1C(=O)N[C@@H](CCCNC(=N)N)C(=O)N[C@@H](Cc1c[nH]cn1)C(=O)N[C@@H](Cc1ccccc1)C(=O)O)[C@@H](C)O [3102.1200] (H-MKITRPRHF-OH),1 nM
19,CC[C@H](C)[C@H](N)C(=O)N[C@@H](CCC(=O)O)C(=O)N[C@H](C(=O)N[C@@H](CO)C(=O)N[C@@H](CO)C(=O)N[C@@H](CC(=O)O)C(=O)N[C@H](C(=O)N[C@@H](CO)C(=O)N[C@@H](Cc1ccccc1)C(=O)O)[C@@H](C)CC)C(C)C [3102.1201] (H-IEVSSDISF-OH),9.7 nM
20,CC[C@H](C)[C@H](NC(=O)[C@H](Cc1c[nH]cn1)NC(=O)[C@H](CC(N)=O)NC(=O)[C@H](CCCCN)NC(=O)[C@@H](N)CCCNC(=N)N)C(=O)N[C@@H](Cc1ccc(O)cc1)C(=O)N[C@@H](CC(N)=O)C(=O)N[C@@H](CO)C(=O)N[C@@H](Cc1ccccc1)C(=O)O [3102.1203] (H-RKNHIYNSF-OH),0.13 nM
21,CC(C)C[C@H](NC(=O)[C@@H](N)Cc1ccccc1)C(=O)N[C@@H](CO)C(=O)N[C@@H](CC(N)=O)C(=O)N[C@@H](CS)C(=O)N[C@@H](CCC(=O)O)C(=O)N[C@@H](CCCCN)C(=O)N[C@@H](CCC(N)=O)C(=O)N[C@@H](Cc1ccccc1)C(=O)O [3102.1206] (H-FLSNCEKQF-OH),21 nM
22,CC[C@H](C)[C@H](NC(=O)[C@H](CO)NC(=O)[C@@H](NC(=O)[C@H](Cc1ccccc1)NC(=O)CNC(=O)[C@@H](NC(=O)[C@@H](NC(=O)[C@H](CCCCN)NC(=O)[C@@H](N)CCCCN)C(C)C)[C@@H](C)CC)C(C)C)C(=O)O [3102.1208] (H-KKVIGFVSI-OH),7.5 nM
23,CC[C@H](C)[C@H](N)C(=O)N[C@@H](CCC(N)=O)C(=O)N[C@@H](CCCNC(=N)N)C(=O)N[C@H](C(=O)N[C@@H](Cc1ccc(O)cc1)C(=O)N[C@@H](CO)C(=O)N[C@@H](CO)C(=O)N[C@@H](CO)C(=O)N[C@H](C(=O)O)[C@@H](C)CC)[C@@H](C)O [3102.1209] (H-IQRTYSSSI-OH),0.83 nM
24,CSCC[C@H](NC(=O)[C@H](CCSC)NC(=O)[C@H](CCC(=O)O)NC(=O)[C@H](C)N)C(=O)N[C@@H](C)C(=O)N1CCC[C@H]1C(=O)N[C@@H](CO)C(=O)N[C@@H](CCSC)C(=O)N[C@@H](Cc1ccccc1)C(=O)O [3102.1211] (H-AEMMAPSMF-OH),17 nM
25,CC(C)C[C@H](N)C(=O)N[C@@H](CCC(=O)O)C(=O)N[C@@H](Cc1ccccc1)C(=O)N[C@@H](CC(N)=O)C(=O)N[C@H](C(=O)N1CCC[C@H]1C(=O)N[C@@H](Cc1ccccc1)C(=O)N[C@H](C(=O)N[C@@H](Cc1ccccc1)C(=O)O)C(C)C)[C@@H](C)O [3102.1212] (H-LEFNTPFVF-OH),10 nM
26,CSCC[C@H](NC(=O)[C@@H](NC(=O)[C@H](CO)NC(=O)[C@@H](NC(=O)[C@H](Cc1ccc(O)cc1)NC(=O)[C@@H](NC(=O)[C@H](Cc1ccccc1)NC(=O)[C@H](CCCCN)NC(=O)[C@@H](N)CO)C(C)C)C(C)C)C(C)C)C(=O)O [3102.1213] (H-SKFVYVSVM-OH),1.6 nM
27,CC[C@H](C)[C@H](N)C(=O)N[C@@H](CC(C)C)C(=O)N[C@@H](C)C(=O)N1CCC[C@H]1C(=O)N[C@@H](CC(N)=O)C(=O)N1CCC[C@H]1C(=O)N[C@@H](CC(N)=O)C(=O)N[C@@H](CCCNC(=N)N)C(=O)N[C@@H](Cc1ccccc1)C(=O)O [3102.1221] (H-ILAPNPNRF-OH),26 nM
28,CC[C@H](C)[C@H](NC(=O)[C@H](CO)NC(=O)[C@H](C)NC(=O)[C@H](Cc1ccccc1)NC(=O)[C@H](CO)NC(=O)CNC(=O)[C@H](CO)NC(=O)[C@@H](N)Cc1ccccc1)C(=O)N[C@@H](Cc1ccccc1)C(=O)O [3102.1222] (H-FSGSFASIF-OH),0.32 nM
29,CSCC[C@H](NC(=O)[C@@H](N)CS)C(=O)N[C@@H](CO)C(=O)N[C@@H](CC(N)=O)C(=O)N[C@@H](CO)C(=O)N[C@@H](CCCNC(=N)N)C(=O)N[C@@H](CC(C)C)C(=O)N[C@@H](CO)C(=O)N[C@@H](Cc1ccccc1)C(=O)O [3102.1225] (H-CMSNSRLSF-OH),1 nM
